# Test: log P determination by HPLC on reverse-phase column (EEC Directive 79/831 Annex V.A8)
# Format: physicochemical
# Conditions: not given
# Protocol: The log P values stated in the foregoing tables and preparation examples are determined in accordance with EEC Directive 79/831 Annex V.A8 by means of HPLC (High Performance Liquid Chromatography) on a reverse-phase column (C 18). Temperature: 43° C.
# The determination by LC-MS in the acidic range takes place at a pH of 2.7 using 0.1% aqueous formic acid and acetonitrile (containing 0.1% formic acid) as eluents; linear gradient from 10% acetonitrile to 95% acetonitrile.
# Calibration is with unbranched alkan-2-ones (having 3 to 16 carbon atoms) of known log P value (log P values determined from the retention times by linear interpolation between two successive alkanones).
row,Structure (SMILES),logP
1,Cc1cc(Cl)cc(C(=O)NC(C)C)c1NC(=O)c1cc(Cn2nnc(-c3ccc(Br)cc3)n2)nn1-c1ncccc1Cl [I-1-151],4.20
2,CSC[C@H](C)NC(=O)c1cc(Cl)cc(C)c1NC(=O)c1cc(Cn2nnc(-c3ccc(Br)cc3)n2)nn1-c1ncccc1Cl [I-1-152],4.41
3,CNC(=O)c1cc(Cl)cc(C)c1NC(=O)c1cc(Cn2cnc(-c3ccc(Cl)cc3)n2)nn1-c1ncccc1Cl [I-1-153],3.07
4,Cc1cc(Cl)cc(C(=O)NC(C)C)c1NC(=O)c1cc(Cn2cnc(-c3ccc(Cl)cc3)n2)nn1-c1ncccc1Cl [I-1-154],3.56
5,CNC(=O)c1cc(Cl)cc(C)c1NC(=O)c1cc(Cn2nnc(-c3cc(Cl)nc(Cl)c3)n2)nn1-c1ncccc1Cl [I-1-155],3.69
6,Cc1cc(Cl)cc(C(=O)NC(C)C)c1NC(=O)c1cc(Cn2nnc(-c3cc(Cl)nc(Cl)c3)n2)nn1-c1ncccc1Cl [I-1-156],4.17
7,CSC[C@H](C)NC(=O)c1cc(Cl)cc(C)c1NC(=O)c1cc(Cn2nnc(-c3cc(Cl)nc(Cl)c3)n2)nn1-c1ncccc1Cl [I-1-157],4.36
8,CSC[C@H](C)NC(=O)c1cc(Cl)cc(C)c1NC(=O)c1cc(Cn2nnc(-c3ccc(Cl)nc3)n2)nn1-c1ncccc1Cl [I-1-158],3.67
9,CSC[C@H](C)NC(=O)c1cc(Cl)cc(C)c1NC(=O)c1cc(Cn2cnc(-c3ccc(Cl)nc3)n2)nn1-c1ncccc1Cl [I-1-159],3.78
10,CNC(=O)c1cc(Cl)cc(C)c1NC(=O)c1cc(Cn2cnc(C(C)(C)C)n2)nn1-c1ncccc1Cl [I-1-160],2.39
11,Cc1cc(Cl)cc(C(=O)NC(C)C)c1NC(=O)c1cc(Cn2cnc(C(C)(C)C)n2)nn1-c1ncccc1Cl [I-1-161],2.87
12,CSC[C@H](C)NC(=O)c1cc(Cl)cc(C)c1NC(=O)c1cc(Cn2cnc(C(C)(C)C)n2)nn1-c1ncccc1Cl [I-1-162],3.10
13,CNC(=O)c1cc(Cl)cc(C)c1NC(=O)c1cc(Cn2nnnc2-c2ccc(C(F)(F)F)cc2)nn1-c1ncccc1Cl [I-1-163],3.15
14,CNC(=O)c1cc(Cl)cc(C)c1NC(=O)c1cc(Cn2nnc(-c3ccccc3)n2)nn1-c1ncccc1Cl [I-1-165],3.09

# Same assay, conditions: HPLC on reverse-phase column
row,Structure (SMILES),logP
1,Cc1cc(Cl)cc(C(=O)NC(C)C)c1NC(=O)c1cc(Cn2nc(C(F)(F)F)n(-c3ccccc3)c2=O)nn1-c1ncccc1Cl [I-1-119],3.54
2,Cc1cc(Cl)cc(C(=O)NC(C)CS(C)(=N)=O)c1NC(=O)c1cc(Cn2nc(C(F)(F)F)nc2C(F)(F)F)nn1-c1ncccc1Cl (stereo not drawn) [I-1-120],2.75
3,Cc1cc(Br)cc(C(=O)NC(C)(C)CS(C)(=O)=O)c1NC(=O)c1cc(Cn2cc(Br)c(C(F)(F)F)n2)nn1-c1ncccc1Cl [I-1-121],3.57
4,CNC(=O)c1cc(Cl)cc(C)c1NC(=O)c1cc(Cn2nnn(CC(F)(F)F)c2=O)nn1-c1ncccc1Cl [I-1-122],2.51
5,Cc1cc(Cl)cc(C(=O)NC(C)C)c1NC(=O)c1cc(Cn2nnn(CC(F)(F)F)c2=O)nn1-c1ncccc1Cl [I-1-123],2.92
6,CNC(=O)c1cc(Cl)cc(C)c1NC(=O)c1cc(Cn2ccc(Br)n2)nn1-c1ncccc1Cl [I-1-125],2.56
7,Cc1cc(Cl)cc(C(=O)NC(C)C)c1NC(=O)c1cc(Cn2nc(C(F)(F)F)n(C3CC3)c2=O)nn1-c1ncccc1Cl [I-1-126],3.18
8,CNC(=O)c1cc(Cl)cc(C)c1NC(=O)c1cc(Cn2nc(C(F)(F)F)n(C3CC3)c2=O)nn1-c1ncccc1Cl [I-1-127],2.74
9,Cc1cc(Cl)cc(C(=O)NC(C)(C)C[S+](C)[O-])c1NC(=O)c1cc(Cn2cc(Br)c(C(F)(F)F)n2)nn1-c1ncccc1Cl (stereo not drawn) [I-1-128],3.25
10,Cc1cc(Cl)cc(C(=O)N[C@@H](C)CS(C)(=O)=O)c1NC(=O)c1cc(Cn2nc(C(F)(F)F)nc2C(F)(F)F)nn1-c1ncccc1Cl [I-1-129],3.27
11,CSC[C@H](C)NC(=O)c1cc(Cl)cc(C)c1NC(=O)c1cc(Cn2cc(Br)c(C(F)(F)F)n2)nn1-c1ncccc1Cl [I-1-130],4.11
12,CSCC(C)(C)NC(=O)c1cc(Cl)cc(C)c1NC(=O)c1cc(Cn2cc(Br)c(C(F)(F)F)n2)nn1-c1ncccc1Cl [I-1-131],4.48
13,CNC(=O)c1cc(Cl)cc(C)c1NC(=O)c1cc(Cn2cnc(C(F)(F)F)c2)nn1-c1ncccc1Cl [I-1-132],2.39
14,Cc1cc(Cl)cc(C(=O)NC(C)C)c1NC(=O)c1cc(Cn2cnc(C(F)(F)F)c2)nn1-c1ncccc1Cl [I-1-133],2.77
15,CSCC(C)(C)NC(=O)c1cc(Br)cc(C)c1NC(=O)c1cc(Cn2nc(C(F)(F)F)nc2C(F)(F)F)nn1-c1ncccc1Cl [I-1-134],4.63
16,CSC[C@H](C)NC(=O)c1cc(Br)cc(C)c1NC(=O)c1cc(Cn2nc(C(F)(F)F)nc2C(F)(F)F)nn1-c1ncccc1Cl [I-1-135],4.24

row,Structure (SMILES),logP
1,Cc1cc(Cl)cc(C(=O)NC(C)(C)C[S+](C)[O-])c1NC(=O)c1cc(Cn2cc(Br)c(C(F)(F)F)n2)nn1-c1ncccc1Cl (stereo not drawn) [I-1-136],3.23
2,Cc1cc(Cl)cc(C(=O)NC(C)(C)C[S+](C)[O-])c1NC(=O)c1cc(Cn2nc(C(F)(F)F)nc2C(F)(F)F)nn1-c1ncccc1Cl (stereo not drawn) [I-1-137],3.22
3,Cc1cc(Cl)cc(C(=O)N[C@@H](C)C[S+](C)[O-])c1NC(=O)c1cc(Cn2cc(Br)c(C(F)(F)F)n2)nn1-c1ncccc1Cl (stereo partly drawn) [I-1-138],2.91
4,Cc1cc(Cl)cc(C(=O)NC(C)(C)CS(C)(=O)=O)c1NC(=O)c1cc(Cn2nc(C(F)(F)F)nc2C(F)(F)F)nn1-c1ncccc1Cl [I-1-139],3.50
5,Cc1cc(Br)cc(C(=O)N[C@@H](C)C[S+](C)[O-])c1NC(=O)c1cc(Cn2nc(C(F)(F)F)nc2C(F)(F)F)nn1-c1ncccc1Cl (stereo partly drawn) [I-1-140],3.05
6,Cc1cc(Cl)cc(C(=O)N[C@@H](C)CS(C)(=O)=O)c1NC(=O)c1cc(Cn2cc(Br)c(C(F)(F)F)n2)nn1-c1ncccc1Cl [I-1-141],3.26
7,Cc1cc(Br)cc(C(=O)NC(C)(C)CS(C)(=O)=O)c1NC(=O)c1cc(Cn2nc(C(F)(F)F)nc2C(F)(F)F)nn1-c1ncccc1Cl [I-1-142],3.67
8,Cc1cc(Br)cc(C(=O)NC(C)(C)C[S+](C)[O-])c1NC(=O)c1cc(Cn2nc(C(F)(F)F)nc2C(F)(F)F)nn1-c1ncccc1Cl (stereo not drawn) [I-1-143],3.20
9,Cc1cc(Br)cc(C(=O)NC(C)(C)C[S+](C)[O-])c1NC(=O)c1cc(Cn2nc(C(F)(F)F)nc2C(F)(F)F)nn1-c1ncccc1Cl (stereo not drawn) [I-1-144],3.38
10,Cc1cc(Cl)cc(C(=O)NC(C)(C)CS(C)(=O)=O)c1NC(=O)c1cc(Cn2cc(Br)c(C(F)(F)F)n2)nn1-c1ncccc1Cl [I-1-145],3.56
11,Cc1cc(Br)cc(C(=O)N[C@@H](C)CS(C)(=O)=O)c1NC(=O)c1cc(Cn2nc(C(F)(F)F)nc2C(F)(F)F)nn1-c1ncccc1Cl [I-1-146],3.36
12,Cc1cc(Cl)cc(C(=O)N[C@@H](C)C[S+](C)[O-])c1NC(=O)c1cc(Cn2nc(C(F)(F)F)nc2C(F)(F)F)nn1-c1ncccc1Cl (stereo partly drawn) [I-1-147],2.95
13,CNC(=O)c1cc(Cl)cc(C)c1NC(=O)c1cc(Cn2nnc(-c3ccc(Cl)nc3)n2)nn1-c1ncccc1Cl [I-1-148],2.91
14,Cc1cc(Cl)cc(C(=O)NC(C)C)c1NC(=O)c1cc(Cn2nnc(-c3ccc(Cl)nc3)n2)nn1-c1ncccc1Cl [I-1-149],3.41
15,CNC(=O)c1cc(Cl)cc(C)c1NC(=O)c1cc(Cn2nnc(-c3ccc(Br)cc3)n2)nn1-c1ncccc1Cl [I-1-150],3.70
